Key:
human mAChRM1 [1] = molecular target: T1, human mAChRM1 (Homo sapiens, UniProt P11229); experiment: mAChR M1 cell-based functional assay (calcium mobilization), agonist activity upon compound addition, Emax relative to acetylcholine maximum; settings: for EC50 / Agonist Activity Human M1 EC50: calcium mobilization upon compound addition; for Emax: relative to the maximum for acetylcholine
T1 construct: host or cells: CHO-K1
T1 sequence (P11229 1-460): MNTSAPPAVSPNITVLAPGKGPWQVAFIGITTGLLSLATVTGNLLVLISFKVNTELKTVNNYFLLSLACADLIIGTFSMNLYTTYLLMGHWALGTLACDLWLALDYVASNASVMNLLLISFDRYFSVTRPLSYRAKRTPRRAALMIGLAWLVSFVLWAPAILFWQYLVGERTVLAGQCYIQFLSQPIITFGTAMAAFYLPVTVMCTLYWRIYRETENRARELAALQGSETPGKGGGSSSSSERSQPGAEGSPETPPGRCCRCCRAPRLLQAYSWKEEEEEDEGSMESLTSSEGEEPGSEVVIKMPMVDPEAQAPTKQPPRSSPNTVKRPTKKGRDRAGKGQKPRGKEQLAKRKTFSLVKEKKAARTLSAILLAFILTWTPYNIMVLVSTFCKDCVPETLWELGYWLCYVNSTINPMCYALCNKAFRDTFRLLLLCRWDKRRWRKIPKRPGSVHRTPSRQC
Outline: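 Emax is given as a percentage of the maximal acetylcholine response, from four-parameter curves of compound-evoked calcium mobilization. Human M1-transfected CHO-K1 cells carried Fluo-4 dye, and compound (11 concentrations, 1:3 steps) was applied at 4 s of a 300 s kinetic fluorescence recording.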

human mAChRM1 [2] = molecular target: T1, human mAChRM1; experiment: mAChR M1 cell-based functional assay (calcium mobilization), positive allosteric modulator activity: increase in the EC20 acetylcholine response; settings: for Emax: PAM mode; for EC50: increase in the EC20 acetylcholine response, read-out: PAM Activity Human M1 EC50
Outline: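 Potentiation is scored as the rise in an EC20 acetylcholine-evoked calcium signal across 11-point (1:3) compound series, fitted with a four-parameter logistic equation to give EC50 and Emax. Read-out is Fluo-4 fluorescence ratio in hM1-transfected CHO-K1 cells, measured kinetically on FDSS.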

Row | SMILES | EC50 (human mAChRM1 [1]) | Emax (human mAChRM1 [1]) | Emax (human mAChRM1 [2]) | EC50 (human mAChRM1 [2]) | Agonist Activity Human M1 EC50 (human mAChRM1 [1])
1 | Cc1cc(-c2ccc(C(C)(C)O)c3nn(C)cc23)cc(F)c1CN1Cc2cccc(F)c2C1=O [Compound 162, 7-fluoro-2-(2-fluoro-4-(7-(2-hydroxypropan-2-yl)-2-methyl-2H-indazol-4-yl)-6-methylbenzyl)isoindolin-1-one] | ≥ 10 µM | 19% | 75% | 202 nM | 
2 | Cn1cc2c(-c3cc(F)c(CN4Cc5cccc(F)c5C4=O)cc3F)ccc(C(C)(C)O)c2n1 [Compound 163, 2-(2,5-difluoro-4-(7-(2-hydroxypropan-2-yl)-2-methyl-2H-indazol-4-yl)benzyl)-7-fluoroisoindolin-1-one] | ≥ 10 µM | 11% | 78% | 124 nM | 
3 | Cn1cc2c(-c3ccc(CN4Cc5cccc(F)c5C4=O)c(F)c3F)ccc(C(C)(C)O)c2n1 [Compound 164, 2-(2,3-difluoro-4-(7-(2-hydroxypropan-2-yl)-2-methyl-2H-indazol-4-yl)benzyl)-7-fluoroisoindolin-1-one] |  |  | 71% | 1210 nM | inactive
4 | Cn1cc2c(-c3cc(F)c(CN4Cc5cccc(F)c5C4=O)c(Cl)c3)ccc(C(C)(C)O)c2n1 [Compound 165, 2-(2-chloro-6-fluoro-4-(7-(2-hydroxypropan-2-yl)-2-methyl-2H-indazol-4-yl)benzyl)-7-fluoroisoindolin-1-one] |  |  | 80% | 361 nM | inactive
5 | Cn1cc2cc(-c3ccc(CN4Cc5cccc(F)c5C4=O)c(F)c3)cc(C(C)(C)O)c2n1 [Compound 166, 7-fluoro-2-(2-fluoro-4-(7-(2-hydroxypropan-2-yl)-2-methyl-2H-indazol-5-yl)benzyl)isoindolin-1-one] |  |  | 76% | 744 nM | inactive
6 | Cc1cc(-c2cc(C(C)(C)O)c3nn(C)cc3c2)ccc1CN1Cc2cccc(F)c2C1=O [Compound 167, 7-fluoro-2-(4-(7-(2-hydroxypropan-2-yl)-2-methyl-2H-indazol-5-yl)-2-methylbenzyl)isoindolin-1-one] |  |  | 74% | 3120 nM | inactive
7 | Cc1cc(-c2cc(C(C)(C)O)c3nn(C)cc3c2)cc(F)c1CN1Cc2cccc(F)c2C1=O [Compound 168, 7-fluoro-2-(2-fluoro-4-(7-(2-hydroxypropan-2-yl)-2-methyl-2H-indazol-5-yl)-6-methylbenzyl)isoindolin-1-one] |  |  | 79% | 998 nM | inactive
8 | Cn1cc2cc(-c3cc(F)c(CN4Cc5cccc(F)c5C4=O)cc3F)cc(C(C)(C)O)c2n1 [Compound 169, 2-(2,5-difluoro-4-(7-(2-hydroxypropan-2-yl)-2-methyl-2H-indazol-5-yl)benzyl)-7-fluoroisoindolin-1-one] |  |  | 76% | 591 nM | inactive
9 | Cn1cc2cc(-c3ccc(CN4Cc5cccc(F)c5C4=O)c(F)c3F)cc(C(C)(C)O)c2n1 [Compound 170, 2-(2,3-difluoro-4-(7-(2-hydroxypropan-2-yl)-2-methyl-2H-indazol-5-yl)benzyl)-7-fluoroisoindolin-1-one] |  |  | 71% | 1960 nM | inactive
10 | Cn1cc2cc(-c3cc(F)c(CN4Cc5cccc(F)c5C4=O)c(Cl)c3)cc(C(C)(C)O)c2n1 [Compound 171, 2-(2-chloro-6-fluoro-4-(7-(2-hydroxypropan-2-yl)-2-methyl-2H-indazol-5-yl)benzyl)-7-fluoroisoindolin-1-one] |  |  | 75% | ≥ 10000 nM | inactive
11 | Cn1cc2c(-c3cc(F)c(CN4Cc5ccccc5C4=O)c(F)c3)ccc(C(C)(C)O)c2n1 [Compound 172, 2-(2,6-difluoro-4-(7-(2-hydroxypropan-2-yl)-2-methyl-2H-indazol-4-yl)benzyl)isoindolin-1-one] |  |  | 85% | 155 nM | inactive
